Measurements published in publication PMC5983740, “Tryptophan-Containing Dual Neuroprotective Peptides: Prolyl Endopeptidase Inhibition and Caenorhabditis elegans Protection from β-Amyloid Peptide Toxicity” (International Journal of Molecular Sciences, 2018).
Ends that are not written are not given here.

What was measured:
[1] = tested on: C. elegans wild-type strain N2; experiment: C. elegans oxidative stress assay (H2O2); type: in vivo, Caenorhabditis elegans; settings: 2 mM H2O2 for 5 h
Method: (§1) Wild-type Bristol strain N2 and the transgenic strain CL4176 (smg-1^ts [pAF29(myo-3/Aβ1–42/let UTR) + pRF4(rol-6(su10069))]) were obtained from the Caenorhabditis Genetics Center (College of Biological Sciences, University of Minnesota, Saint Paul, MN, USA) and were used for oxidative stress experiments and paralysis assays, respectively. C. elegans strains were routinely propagated on Nematode Growth Medium (NGM) plates with Escherichia coli strain OP50 as a food source at 20 °C (N2) or at 16 °C (CL4176). Worms were synchronized by isolating eggs from gravid adults at 20 °C (N2) or at 16 °C (CL4176), and eggs were hatched overnight in NGM plates.
(§2) In the oxidative and paralysis experiments, worms were fed with the different compounds from egg to adult stages, and transferred to new plates every two days.
For oxidative stress experiments, strain N2 was egg-synchronized in NGM plates (control medium) and NGM supplemented with 0.1 µg/mL peptides or 0.1 mg/mL vitamin C (positive control). The viability of C. elegans was assessed after 2 mM hydrogen peroxide (H2O2)-induced oxidative stress for 5 h. Experiments were carried out in triplicate.

[2] = molecular target: T1, prolyl endopeptidase (PEP) (Elizabethkingia meningoseptica, UniProt P27028); experiment: biochemical; type: biochemical; settings: for PEP Residual Activity (%) / PEP inhibition (in words) / PEP inhibitory activity (% inhibition): peptide 1 mg/mL; for PEP Residual Activity (%): % of control without peptide (100%), pH 7, 30 °C, 30 min, mean ± SD of three replicates, SD; for PEP inhibition (in words): P-containing peptides; for PEP inhibition: highest concentration tested, 3.3 mg/mL
T1 construct: purchased Seikagaku Corporation (Tokyo, Japan)
T1 sequence (P27028 21-705): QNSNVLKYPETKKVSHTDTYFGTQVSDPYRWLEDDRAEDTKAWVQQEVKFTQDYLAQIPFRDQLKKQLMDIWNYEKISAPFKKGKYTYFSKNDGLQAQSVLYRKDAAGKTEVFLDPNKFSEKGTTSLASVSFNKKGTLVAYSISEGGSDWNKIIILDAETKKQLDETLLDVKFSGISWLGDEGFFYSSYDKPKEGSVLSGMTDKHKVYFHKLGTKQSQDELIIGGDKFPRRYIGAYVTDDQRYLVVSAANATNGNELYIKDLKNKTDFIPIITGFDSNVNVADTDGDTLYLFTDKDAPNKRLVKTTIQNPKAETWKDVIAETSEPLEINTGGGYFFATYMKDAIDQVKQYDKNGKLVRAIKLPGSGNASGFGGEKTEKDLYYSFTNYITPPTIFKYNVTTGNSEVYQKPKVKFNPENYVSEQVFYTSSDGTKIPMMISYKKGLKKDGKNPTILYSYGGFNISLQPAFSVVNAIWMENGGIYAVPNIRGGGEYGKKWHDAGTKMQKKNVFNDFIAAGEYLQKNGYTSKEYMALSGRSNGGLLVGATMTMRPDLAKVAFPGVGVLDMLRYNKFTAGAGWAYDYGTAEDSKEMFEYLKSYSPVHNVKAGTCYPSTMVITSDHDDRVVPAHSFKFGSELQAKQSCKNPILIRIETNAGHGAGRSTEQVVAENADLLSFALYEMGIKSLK
Method: The PEP activity was determined as previously described with minor modifications. Enzyme assays were performed in 96-well microplates using Z-Gly-Pro-p-nitroanilide as a substrate and measuring the increase in absorbance at 410 nm due to the release of p-nitroaniline. Ten µL of tenfold peptide or hydrolysate solution in 100 mM sodium phosphate buffer, pH 7 ([…] for LFHs), 30 µL of a 0.1 U/mL PEP solution in 100 mM sodium phosphate buffer (pH 7) and 35 µL of the same sodium phosphate buffer were pre-incubated at 30 °C for 5 min, and the mixture incubated with 25 µL of 2 mM Z-Gly-Pro-p-nitroanilide in 40% 1,4-dioxane for 30 min at the same temperature. The reaction was finished by the addition of 100 µL 10% Triton X-100 in 1 M sodium acetate buffer (pH 4), and the absorbance measured at 410 nm in a microplate reader. Data are expressed as the percentage of PEP residual activity with respect to a control without peptide (100%).
The IC50 value of a peptide was defined as the concentration required to inhibit 50% of the PEP activity and the value for each experiment was estimated by non-linear regression of the experimental data to a four-parameter logistic curve using the software package SigmaPlot v 13.0 (SPSS Inc., Chicago, IL, USA).

[3] = tested on: transgenic C. elegans strain CL4176 engineered to express human Aβ1–42; experiment: C. elegans paralysis assay (Aβ1–42-induced paralysis); type: in vivo, Caenorhabditis elegans
Method: as §1, §2
Paralysis is induced in strain CL4176 by the expression of a muscle-specific Aβ1–42 which depends on up-shifting temperature from 16 to 25 °C [7, 8]. For paralysis experiments, strain CL4176 maintained at 16 °C was egg-synchronized in plates containing NGM (control medium) and NGM with peptides (0.02–5 µg/mL). Transgene expression was induced by up-shifting the temperature from 16 to 25 °C, starting 24 h after egg laying and maintained for 24 h. The worms were incubated at 20 °C until all the worms in the experiment became paralyzed. Paralysis was scored 24 h after induction. Paralysis in induced worms was compared with non-induced worms (maintained at 16 °C until the end of the paralysis assay). Experiments were carried out at least in duplicate.

[4] = molecular target: T1, prolyl endopeptidase (PEP); parameters: method as in 2 sources, ref 29 = [29]; PMID 26574880; doi:10.1039/C5FO01262G; 29. Hsieh C.-H. Wang T.-Y. Hung C.-C. Hsieh Y.-L. Hsu K.-C. Isolation of prolyl endopeptidase inhibitory peptides from a sodium caseinate hydrolysate Food Funct. 2016 7 565 573 10.1039/C5FO01262G 2657 ||| ref 31 = [31]; PMID 23675471; doi:10.1371/journal.pone.0063283; 31. Martorell P. Bataller E. Llopis S. Gonzalez N. Alvarez B. Monton F. Ortiz P. Ramon D. Genoves S. A cocoa peptide protects Caenorhabditis elegans from oxidative stress and β-amyloid peptide toxicit; settings: cocoa hydrolysate peptide; cited from earlier work
[5] = 0.1 µg/mL, average paralysis curve of the independent trials
[6] = dose 0.1 µg/mL, trial 1, hours after temperature up-shift
[7] = dose 0.1 µg/mL, trial 2, hours after temperature up-shift
[8] = dose 0.1 µg/mL, trial 3, hours after temperature up-shift

## O=C1O[C@H]([C@@H](O)CO)C(O)=C1O [vitamin C, reference compound]
[1]; vitamin C 10 µg/mL (Figure 4; method says 0.1 mg/mL), positive control
  worm survival after oxidative stress (in words): significant protection

## Ac-RKWFHLW-NH2 [PACEI48L, synthetic heptapeptide Ac-RKWFHLW-NH2]
[2]
  PEP Residual Activity (%): 61.4 ± 4.4 (a) %

## Ac-RKWFLHW-NH2 [PACEI49L, synthetic heptapeptide Ac-RKWFLHW-NH2]
[2]
  PEP Residual Activity (%): 46.8 ± 9.1 (b) %

## Ac-RKWHFLW-NH2 [PACEI50L]
[2]
  PEP Residual Activity (%): 6.4 ± 2.3 (c) %
[1]; peptide 0.1 µg/mL, triplicate
  worm survival after oxidative stress (in words): none of them was able to increase the worm survival
[3]; 0.1 µg/mL, average curves
  decrease of paralyzed worms compared with control fed nematodes at 49 h: 25.2%
[3]; [5]
  % of non-paralyzed worms at onset paralysis: 99%
  Onset Paralysis, time: 41 h
  Paralyzed Worms (percentage at 49 h): 42.3%
[3]; dose 0.02 µg/mL, data not shown
  effect on paralysis (in words): did not provide any effect
[3]; dose 0.1 µg/mL, trial 1
  % of non-paralyzed worms at onset paralysis: 98.4%
  Paralyzed Worms at 49 h: 48.7%
[3]; [6]
  Onset Paralysis, time: 41 h
[3]; dose 0.1 µg/mL, trial 2
  % of non-paralyzed worms at onset paralysis: 99.1%
  Paralyzed Worms at 49 h: 21.9%
[3]; [7]
  Onset Paralysis, time: 43 h
[3]; dose 0.1 µg/mL, trial 3
  % of non-paralyzed worms at onset paralysis: 97.5%
  Paralyzed Worms at 49 h: 56.2%
[3]; [8]
  Onset Paralysis, time: 43 h
[3]; dose 0.5 µg/mL, trial 1
  % of non-paralyzed worms at onset paralysis: 96.7%
  Paralyzed Worms at 49 h: 41.3%
[3]; dose 0.5 µg/mL, trial 1, hours after temperature up-shift
  Onset Paralysis, time: 45 h
[3]; dose 0.5 µg/mL, trial 2
  % of non-paralyzed worms at onset paralysis: 99.2%
  Paralyzed Worms at 49 h: 41.7%
[3]; dose 0.5 µg/mL, trial 2, hours after temperature up-shift
  Onset Paralysis, time: 43 h

## Ac-RKWHLFW-NH2 [PACEI51L, synthetic heptapeptide Ac-RKWHLFW-NH2]
[2]
  PEP Residual Activity (%): 71.6 ± 4.9 (a) %

## Ac-RKWLFHW-NH2 [PACEI52L, synthetic heptapeptide Ac-RKWLFHW-NH2]
[2]
  PEP Residual Activity (%): 65.9 ± 3.6 (a) %

## Ac-RKWLHFW-NH2 [PACEI53L, synthetic heptapeptide Ac-RKWLHFW-NH2]
[2]
  PEP Residual Activity (%): 71.5 ± 4.5 (a) %

## DNYDNSAGKWWVT [Peptide 13L]
[4]
  IC50 (PEP inhibition): 190 µg/mL

## DRDQY [PKH1, synthetic peptide identified in proteinase K lactoferrin hydrolysate, DRDQY]
[2]
  PEP Residual Activity (%): 102.7 ± 7.0%

## DRDQYELL [PKH7, synthetic peptide identified in proteinase K lactoferrin hydrolysate, DRDQYELL]
[2]
  PEP Residual Activity (%): 115.3 ± 4.2 %

## ENLPEKA [PKH3, synthetic peptide identified in proteinase K lactoferrin hydrolysate, ENLPEKA]
[2]
  PEP Residual Activity (%): 97.1 ± 0.1%
  PEP inhibition (in words): failed to inhibit PEP

## GGRPTYEEY [PKH5, synthetic peptide identified in proteinase K lactoferrin hydrolysate, …]
[2]
  PEP Residual Activity (%): 96.9 ± 2.1%
  PEP inhibition (in words): failed to inhibit PEP

## GILRPY [PKH6, synthetic peptide identified in proteinase K lactoferrin hydrolysate, GILRPY]
[2]
  PEP Residual Activity (%): 97.2 ± 4.0%
  PEP inhibition (in words): failed to inhibit PEP

## GILRPYL [PKH10, synthetic peptide identified in proteinase K lactoferrin hydrolysate, GILRPYL]
[2]
  PEP Residual Activity (%): 103.9 ± 0.8%
  PEP inhibition (in words): failed to inhibit PEP

## NEGLTW [PKH8, LF-derived hexapeptide NEGLTW]
[2]
  PEP inhibitory activity (% inhibition): 12%
  PEP Residual Activity (%): 87.1 ± 1.0 %

## NIPMGL [PKH9, synthetic peptide identified in proteinase K lactoferrin hydrolysate, NIPMGL]
[2]
  PEP Residual Activity (%): 95.5 ± 3.4%
  PEP inhibition (in words): failed to inhibit PEP

## RIPSKV [PKH4, synthetic peptide identified in proteinase K lactoferrin hydrolysate, RIPSKV]
[2]
  PEP Residual Activity (%): 109.6 ± 2.2 %
  PEP inhibition (in words): failed to inhibit PEP

## RKAHFLA [PACEI50L-v2, PACEI50L derivative, both W residues at position 3 and 7 replaced with A, RKAHFLA]
[2]
  PEP inhibition: did not exhibit a clear inhibitory effect
[3]; 0.1 µg/mL, average curves
  final percentage of non-paralyzed worms, lower than the control conditions by: 5.6%
[3]; [5]
  % of non-paralyzed worms at onset paralysis: 92%
  Onset Paralysis, time: 41 h
  Paralyzed Worms (percentage at 49 h): 73.1%
[3]; dose 0.1 µg/mL, trial 1
  % of non-paralyzed worms at onset paralysis: 91.3%
  Paralyzed Worms at 49 h: 74.9%
[3]; [6]
  Onset Paralysis, time: 41 h
[3]; dose 0.1 µg/mL, trial 2
  % of non-paralyzed worms at onset paralysis: 90.7%
  Paralyzed Worms at 49 h: 75.9%
[3]; [7]
  Onset Paralysis, time: 41 h
[3]; dose 0.1 µg/mL, trial 3
  % of non-paralyzed worms at onset paralysis: 94.7%
  Paralyzed Worms at 49 h: 68.4%
[3]; [8]
  Onset Paralysis, time: 41 h

## RKWHFLA [PACEI50L-v1]
[2]
  PEP inhibition: 20%
[3]; [5]
  % of non-paralyzed worms at onset paralysis: 94%
  Onset Paralysis, time: 41 h
  Paralyzed Worms (percentage at 49 h): 62.8%
[3]; dose 0.1 µg/mL, trial 1
  % of non-paralyzed worms at onset paralysis: 98.0%
  Paralyzed Worms at 49 h: 62.5%
[3]; [6]
  Onset Paralysis, time: 41 h
[3]; dose 0.1 µg/mL, trial 2
  % of non-paralyzed worms at onset paralysis: 91.7%
  Paralyzed Worms at 49 h: 71.9%
[3]; [7]
  Onset Paralysis, time: 41 h
[3]; dose 0.1 µg/mL, trial 3
  % of non-paralyzed worms at onset paralysis: 93.3%
  Paralyzed Worms at 49 h: 53.7%
[3]; [8]
  Onset Paralysis, time: 41 h

## SVDGKEDLIA [PKH11-v1]
[2]
  IC50: 2870 µM

## SVDGKEDLIW [PKH11]
[2]
  IC50: 1810 µM
  PEP inhibitory activity (% inhibition): 22%
  PEP Residual Activity (%): 78.0 ± 3.1 %
